The test system of series [1] is MDA-MB-231 triple negative breast cancer cells. Briefly: XTT cell growth assay, MDA-MB-231. It is filed as cell-based, human. The following applies: NS = not statistically significant; for inhibition at 50 µM: Homo sapiens, MDA-MB-231, 24 h, read-out: Effectiveness to suppress MDA-MB-231 cell growth (cell growth inhibition); for Effectiveness to suppress MDA-MB-231 cell growth (cell growth inhibition): 50 uM, 24 h. The text has this:
(§1) The XTT assay is used to measure cellular metabolic activity as an indicator of cell viability, proliferation and cytotoxicity. This non-radioactive, colorimetric assay system was first described by Scudiero, et al. in 1988 (Paull, Kenneth D. et al., J Heterocycl Chem, 1988, 25: 911-914; Scudiero, Dominic A. et al., Cancer Res, 1988, 48: 4827-4833) and improved in subsequent years by several other investigators (Weislow, Owen S. et al., J Natl Cancer Inst, 1989, 81(8): 577-586; Roehm, N. W. et al., J Immunol Methods, 1991, 142: 257-265).
(§2) The XTT assay is based on the reduction of a yellow tetrazolium salt (sodium 3′-[1-(phenylaminocarbonyl)-3,4-tetrazolium]-bis (4-methoxy6-nitro) benzene sulfonic acid hydrate or XTT) to an orange formazan dye by metabolically active cells (FIG. 8). The formazan dye formed is soluble in aqueous solutions and is directly quantified using a scanning multiwell spectrophotometer (ELISA reader). An increase in number of living cells results in an increase in the overall activity of mitochondrial dehydrogenases in the sample. This increase directly correlates to the amount of orange formazan formed, as monitored by the absorbance. Reduced number of living cells leads to reduced metabolism of quaternary salt and therefore reduced absorption.
(§3) Cell viability was assessed using the XTT assay kit (Roche, Mannheim, Germany) as described previously (Kouka, Paraskevi et al., Oxid Med Cell Longev. 2019, Article ID 1870965). Briefly, cancer cells per well were cultured in a 96-well plate in Dulbecco's modified Eagle's medium (DMEM). Following a 24 h incubation, 5, 10 and 50 μM of the tested GS compound was diluted in a serum-free DMEM and administered for 24 h. Subsequently, 50 μL of the XTT reagent (50:1) was added to each well. After 4 h of incubation, the absorbance was monitored at 450 nm and also at 630 nm as a reference wavelength in a BioTek ELx800 microplate reader (BioTek Instruments Inc., Winooski, VT, USA). As a negative control, samples containing serum-free DMEM only were used.
MDA-MB-231 is a human epithelial breast cancer cell line that was established from a pleural effusion of a person with a metastatic mammary adenocarcinomal and is one of the most commonly used breast cancer cell lines in medical research laboratories.
(§4) The effects of exemplary compounds on cancer cell lines and one non-tumorigenic cell line (control) were investigated using a high throughput screening assay. More specifically, the effects of the GS compounds on cell growth was evaluated by the XTT assay for cell lines HepG2, HeLa, MCF7 ER+, MDA-MB-231, and MKN-45, and by the Cell Glo luminescence assay for cell lines MIA PaCa-2, HCT-116, MCF-10A, and PANC-1.

The test system of series [2] is HeLa cervical cancer cells. The experiment in a line: XTT cell growth assay, HeLa. Type of series: cell-based, human. The following applies: Homo sapiens, HeLa, 24 h, NS = not statistically significant, read-out: Effectiveness to suppress HeLa cell growth (cell growth inhibition).
Description: as §1, §2, §3
HeLa is a human immortal cell line used in scientific research. It is the oldest and most commonly used human cell line. The line was derived from cervical cancer cells taken on Feb. 8, 1951 from Henrietta Lacks, a patient who died of cancer on Oct. 4, 1951.
as §4
On the technique in general: Formazan colour is commonly taken as a measure of viable cells.

Series [3] deals with HCT-116 colon cancer cells. Briefly: Cell Glo luminescence cell growth assay, HCT-116. Type of series: cell-based, human. The conditions noted are these: NS = not statistically significant; for Effectiveness to suppress HCT-116 cell growth (cell growth inhibition): 1 uM, 24 h; for inhibition at 1 µM: Homo sapiens, HCT-116, 24 h, read-out: Effectiveness to suppress HCT-116 cell growth (cell growth inhibition).
Description: (§5) The CellTiter-Glo® Luminescent Cell Viability Assay (Promega Corporation; Madison, WI) is a homogeneous method of determining the number of viable cells in culture based on quantitation of the ATP present, an indicator of metabolically active cells. The homogeneous assay procedure involves adding the single reagent (CellTiter-Glo® Reagent) directly to cells cultured in serum-supplemented medium. The homogeneous “add-mix-measure” format results in cell lysis and generation of a luminescent signal proportional to the amount of ATP present. The amount of ATP is directly proportional to the number of cells present in culture.
(§6) Cancer cells (3,000 cells/well) were harvested in a 96-well plate. Then, the cancer cells were treated with GS compounds and incubated for 24 hours. The MT Cell Viability Substrate, NanoLuc® Enzyme and cell culture medium was equilibrated to 37° C. The 2× RealTime-Glo™ reagent was prepared by diluting the MT Cell Viability Substrate and NanoLuc® Enzyme in 37° C. cell culture medium to a 2× concentration for each reagent. For example, 1 mL of 2× RealTime-Glo™ reagent was prepared by adding 2 μL of MT Cell Viability Substrate, 1,000×, and 2 μL of NanoLuc® Enzyme, 1,000×, to 996 μL of cell culture medium to form the 2× RealTime-Glo™ reagent. Then, an equal volume of 2× RealTime-Glo™ reagent was added to the cancer cells. The cells were kept for ˜20 minutes in the cell culture incubator and then luminescence was measured by using a plate-reading luminometer.
HCT-116 is a human colorectal cancer cell lines that has a mutation in RAS proto-oncogene.
as §4

In series [4] the test system is MIA PaCa-2 pancreatic cancer cells. The experiment in a line: Cell Glo luminescence cell growth assay, MIA PaCa-2. It is filed as cell-based, human. The conditions noted are these: Homo sapiens, MIA PaCa-2, 24 h, NS = not statistically significant, read-out: Effectiveness to suppress MIA PaCa-2 cell growth (cell growth inhibition).
Description: as §5, §6
MIA PaCa-2 is a human pancreatic ductal adenocarcinoma cell line derived from the carcinoma of a person.
as §4

For series [5], the system named is MCF-7 ER+ breast cancer cells. Briefly: XTT cell growth assay, MCF-7 ER+. The conditions noted are these: Homo sapiens, MCF7, 24 h, NS = not statistically significant, read-out: Effectiveness to suppress MCF7 cell growth (cell growth inhibition). It is filed as cell-based, human.
Description: as §1, §2, §3
MCF-7 ER+ is a human breast cancer cell line isolated in 1970 from a person. Prior to MCF-7, it was not possible for cancer researchers to obtain a mammary cell line that was capable of living longer than a few months.
as §4

Series [6] is described as follows: Deoxyribose degradation assay (hydroxyl radical scavenging). It is filed as biochemical. The conditions noted are these: NS = not statistically significant. As to the method: The hydroxyl radical (OH.) is an extremely reactive in biological systems and has been implicated as highly damaging species in free radical pathology, capable of damaging biomolecules of the living cells. These radical combines with nucleotides in DNA and cause strand breakage leading to carcinogenesis, mutagenesis and cytotoxicity. Hydroxyl radical (OH.) scavenging capacity of an extract is directly related to its antioxidant activity.
The effect of extracts on hydroxyl radicals was assayed by using the deoxyribose method. 2-Deoxyribose is degraded on exposure to hydroxyl radicals generated by Fenton's reaction. The ability to neutralize the OH. is estimated as the rate of inhibition of the oxidation of 2-deoxyribose by the OH. (FIG. 5).
The measurement of the hydroxyl radical scavenging activity was evaluated for each of the GS compound by evaluating the pink chromogen absorption at 532 nm by spectrophotometry as described previously (Perjesi, Pal et al., Open Med Chem J., 2011, 5: 61-67

`C/C=C1/[C@H](OC2OC(CO)C(O)C(O)C2O)OC=C(C(=O)O)[C@H]1CC(=O)O` (stereo in doubt) [GS2, (2S,4S,E)-4-(carboxymethyl)-3-Ethylidene-2-{[(2R,3S,4R,5R,6S)-3,4,5-trihydroxy-6-(hydroxymethyl)tetrahydro-2H-pyran-2-yl]oxy}-3,4-dihydro-2H-pyran-5-carboxylic acid]: the inhibition at 50 µM worked out at 41.8% in series [1] and 24.4% in series [2].
As for `C/C=C1/[C@H](OC2OC(CO)C(O)C(O)C2O)OC=C(C(=O)O)[C@H]1CC(=O)OCC12CC3CC(CC(C3)C1)C2` (stereo in doubt) [GS3, (2S,4S,E)-4-(2-(adamantan-1-ylmethoxy)-2-oxoethyl)-3-ethylidene-2-{[(2R,3S,4R,5R,6S)-3,4,5-trihydroxy-6-(hydroxymethyl)tetrahydro-2H-pyran-2-yl]oxy}-3,4-dihydro-2H-pyran-5-carboxylic acid], in series [1], the inhibition at 50 µM turned out to be 64.7%.
On the same count and under the same terms, as for `C/C=C1/[C@H](OC2OC(CO)C(O)C(O)C2O)OC=C(C(=O)O)[C@H]1CC(=O)OCCC1CCCCC1` (stereo in doubt) [GS5, (2S,4S,E)-4-(2-(2-cyclohexylethoxy)-2-oxoethyl)-3-ethylidene-2-{[(2R,3S,4R,5R,6S)-3,4,5-trihydroxy-6-(hydroxymethyl)tetrahydro-2H-pyran-2-yl]oxy}-3,4-dihydro-2H-pyran-5-carboxylic acid], the figure is 33.6%.
Same read-out and setting: as for `C/C=C1/[C@H](OC2OC(CO)C(O)C(O)C2O)OC=C(C(=O)O)[C@H]1CC(=O)OCCc1ccc(O)cc1` (stereo in doubt) [GS7, (2S,4S,E)-3-ethylidene-4-(2-(4-hydroxyphenethoxy)-2-oxoethyl)-2{[(2R,3 S,4R,5R,6S)-3,4,5-trihydroxy-6-(hydroxymethyl)tetrahydro-2H-pyran-2-yl]oxy}-3,4dihydro-2H-pyran-5-carboxylic acid], the figure is 32.7%.
Consider `C/C=C1/[C@H](OC2OC(CO)C(O)C(O)C2O)OC=C(C(=O)O)[C@H]1CC(=O)OCc1cc2ccccc2[nH]1` (stereo in doubt) [GS8, (2S,4S,E)-4-(2-((1H-indol-2-yl)methoxy)-2-oxoethyl)-3-ethylidene-2-{[(2R,3S,4R,5R,6S)-3,4,5-trihydroxy-6-(hydroxymethyl)tetrahydro-2H-pyran-2-yl]oxy}-3,4-dihydro-2H-pyran-5-carboxylic acid], for which the figures for the inhibition at 50 µM in series [1] and in series [2] were 22.5% and 38.2%, respectively.
Consider `C/C=C1/[C@H](OC2OC(CO)C(O)C(O)C2O)OC=C(C(=O)O)[C@H]1CC(=O)OCCCSC` (stereo in doubt) [GS9, (2S,4S,E)-3-ethylidene-4-(2-(3-(methylthio)propoxy)-2-oxoethyl)-2-{[(2R,3S,4R,5R,6S)-3,4,5-trihydroxy-6-(hydroxymethyl)tetrahydro-2H-pyran-2-yl]oxy}-3,4-dihydro-2H-pyran-5-carboxylic acid], for which the “Effectiveness to suppress MDA-MB-231 cell growth (cell growth inhibition)” value in series [1] is on record as “highest suppressive activity”. For the same compound, the inhibition at 50 µM in series [1] was found to be 71.2%; in series [4], 55%; in series [2], 20%; in series [5], 11.6%. Moreover, the “Effectiveness to suppress HCT-116 cell growth (cell growth inhibition)” value in series [3] was “suppressive activity”. Further, the inhibition at 1 µM in series [3] is 41.7%.
Take `C/C=C1/[C@H](OC2OC(CO)C(O)C(O)C2O)OC=C(C(=O)O)[C@H]1CC(=O)SCCc1ccccc1` (stereo in doubt) [GS11, (2S,4S,E)-3-ethylidene-4-(2-oxo-2-(phenethylthio)ethyl)-2-{[(2R,3S,4R,5R,6S)-3,4,5-trihydroxy-6-(hydroxymethyl)tetrahydro-2H-pyran-2-yl]oxy}-3,4-dihydro-2H-pyran-5-carboxylic acid]: in series [1], the “Effectiveness to suppress MDA-MB-231 cell growth (cell growth inhibition)” value is given as “highest suppressive activity”. Besides, the inhibition at 50 µM in series [1] stood at 74.3%; in series [4], 50%; in series [2] it was 14.4%; in series [5] it was 57.8%. Also, the “Effectiveness to suppress HCT-116 cell growth (cell growth inhibition)” value in series [3] is reported as “suppressive activity”. Moreover, the inhibition at 1 µM in series [3] amounted to 32.9%.
In the case of `C/C=C(/C=O)[C@@H](CC=O)CC(=O)OCC12CC3CC(CC(C3)C1)C2` [GS23, (3S,4E)-4-formyl-3-(2-oxoethyl)hex-4-enoic acid adamantan-1-ylmethyl ester], the inhibition at 50 µM in series [1] amounted to 42.7%; in series [4], 15%; in series [2] it was 25.2%; in series [5], 64.7%. In addition, the “Deoxyribose Degradation Assay IC50” value in series [6] came out at 17.6 μg extract/mL.

Broadly, the inhibition is the drop in the measured response relative to a control, in per cent.

The values above are taken from US12414960B2, “Analogues of oleuropein and oleacein and uses thereof” (Attica Sciences Ltd., priority 2020, dated 2025).
